Here are results for 79 compounds from publication PMC12040169 (PLOS Biology, 2025).

A word on the viability: it is a read-out of living cells in per cent, often relative to untreated cells.

The nature of this data set: in vitro. To be noted: human, hela cells, % viability.
On to `C[S+]([O-])CCn1c2ccccc2c2c(N3CCCC3)nc(N3CCCC3)nc21` (stereo not shown) [CBK017586], for which the viability at 28.5 h, 10 µM stood at 91.9%. Take `CCn1cc(C(=O)O)c(=O)c2cc(F)c(N3CCN(C(=S)Nc4ccc(F)c(Cl)c4)CC3)cc21` [CBK267921]: the viability at 28.5 h, 10 µM amounted to 97.5%. In the case of `CCNC(=O)Nc1ccc2ccc(-c3cccnc3)nc2n1` [CBK070652] it was 85%; in that of `CCc1nnsc1C(=O)N1CCc2[nH]c3c(C)cccc3c2C1` [CBK281655], 86.2%. In the case of `COc1ccccc1Nc1nc(N)nc(CSc2nc3ccccc3s2)n1` [CBK266747] it was 95.7%; in that of `O=C(NC1CCCC1)c1ccc2c(c1)OCO2` [CBK002177], 81%; in that of `Cc1ccc(CNC(=O)Cn2nnc(-c3ccc(CN4CC(C)OC(C)C4)cc3)n2)cc1` (stereo not shown) [CBK144554C], 64.2%. In the case of `Cc1ccc(S(=O)(=O)CCOc2nc3c(C(F)(F)F)cc(C4CC4)nc3o2)cc1` [CBK269267] it was 111%; in that of `CCOC(=O)c1cnc2ccc(Cl)cc2c1NC` [CBK307605], 71.1%; in that of `O=C(CC1C(=O)N(c2ccccc2)C(=S)N1NC(=O)c1ccccn1)Nc1ccc(Cl)cc1` (stereo not shown) [CBK266711], 92.2%. As to `CCN1CCN(C(=O)c2ccc(C)c(S(=O)(=O)Nc3cccc(C)c3)c2)CC1` [CBK268226], the viability at 28.5 h, 10 µM came out at 109%. In the case of `CC(C)Nc1cc(Sc2cccc(C(=O)O)c2)ncn1` [CBK093583] it was 117%; in that of `NC(=O)[C@@H]1C[C@@H](O)[C@H](O)[C@H]2[C@@H]1N(c1ccc(Cl)cc1)C(=S)N2CC1CCCCC1` [CBK288933], 86.8%; in that of `CCc1nc2ccc(C(=O)N3CCCCC3)cn2c1N(C)CCC(C)C` [CBK146065], 96.3%. In the case of `c1ccc2c(c1)n[n+]1c3ccccc3[n-]n21` [CBK260974] it was 85.7%. On to `CCC1Oc2ccc(C(O)c3ccco3)cc2N(Cc2cccc(OC)c2)C1=O` (stereo not shown) [CBK286190], for which the viability at 28.5 h, 10 µM was 89.7%. Regarding `CC(=O)Nc1ccc(S(=O)(=O)N2CCN(c3ccc([N+](=O)[O-])cc3C(F)(F)F)CC2)cc1` [CBK264944], the viability at 28.5 h, 10 µM was found to be 112%. In the case of `CC1=C[C@@H](CNC(=O)c2cccnc2)[C@H](C(C)C)C[C@H]1CC(=O)N1CCCC1` [CBK289055] it was 87.7%; in that of `Cc1cc(/C=C2/NC(=S)NC2=O)c(C)n1-c1ccc(Sc2ccc([N+](=O)[O-])cc2)cc1` [CBK263883], 109%; in that of `CCc1nn(CC(=O)N(C)C)c(=O)c2cc3oc(C)cc3n12` [CBK283576], 114%. In the case of `O=C1[C@@H]2CCCN2C(=O)c2ccccc2N1CCN1CCCC1` [CBK282857] it was 96.3%; in that of `O=C(Cc1csc(-c2ccc(F)cc2)n1)Nc1ccc(F)cc1` [CBK295177], 82.3%. In the case of `O=C(CSc1ncnc2c1cnn2-c1ccccc1)Nc1ccccc1` [CBK269408] it was 96.4%; in that of `OCCCCn1c(-c2cccnc2)n[nH]c1=S` [CBK288365], 88.6%; in that of `O=C1C[C@@H]2CCN(C(=O)COc3ccccc3)C[C@@H]2CCN1Cc1cccnc1` [CBK288793], 82%. Regarding `CCn1cc(CN2CCCN(C(=O)c3cc(C4CC4)on3)CC2)cn1` [CBK305401], the viability at 28.5 h, 10 µM is 88.1%. Regarding `CC(C)C1c2cccn2CCN1C(=O)c1cc(-c2ccccn2)n[nH]1` (stereo not shown) [CBK283223], the viability at 28.5 h, 10 µM stood at 81.9%.

As for `CCC(CO)Nc1cncc(-c2cccc(F)c2)n1` (stereo not shown) [CBK065752], the viability at 28.5 h, 10 µM was 96.1%. In the case of `O=C(c1cnc2ccccc2n1)N1CCC(F)CC1` [CBK200264] it was 93.4%; in that of `COCC1OC(n2cc(C)c(=O)[nH]c2=O)CC1O` (stereo not shown) [CBK201338], 94.5%. With `C[C@@H]1CNCCN1c1cc(C(F)(F)F)cc(OCc2ccccc2)n1` [CBK026755], the viability at 28.5 h, 10 µM turned out to be 79.1%. In the case of `C[C@H]1[C@@H]2[C@@H](O)C([C@H](C)C(=O)NC3CC3)CC[C@@]2(C)CC[C@@H]1NC(=O)c1cncnc1` (stereo partly shown) [CBK289453], the viability at 28.5 h, 10 µM is 91.5%. As for `Cc1ccc(NS(=O)(=O)c2ccc(OCC(=O)N3CCN(C)CC3)c(C)c2)cc1` [CBK267834], the figure is 110%; as for `CCN(CC)C(=O)C1CCCN(C(=O)NC2CCc3ccccc32)C1` (stereo not shown) [CBK156156], 92.2%. As for `COc1nc(N)nc2c1ccn2C1CC(O)C(CO)O1` (stereo not shown) [CBK201177], the figure is 98.6%.

For the compound `Cn1c(=O)n(CC(=O)N2CCCc3ccccc32)c2cccnc21` [CBK283790], the viability at 28.5 h, 10 µM was 86.7%. As for `CCCC/C=C/c1cnc(N2CCOCC2)c2nccn12` [CBK091256], the figure is 102%; as for `COc1cc(OC)nc(CN2C(=O)C3(CC(=O)N(CCCN4C(=O)c5ccccc5C4=O)C3=O)c3cc(C)ccc32)n1` (stereo not shown) [CBK075992], 91.5%. As for `O=C(CN1C2CCC1CC(O)(c1ccco1)C2)Nc1ccc(F)cc1` (stereo not shown) [CBK284062], the figure is 87.6%; as for `Nc1nnc(SC2c3cccc4cccc(c34)C2NS(=O)(=O)c2ccc(Cl)cc2)s1` (stereo not shown) [CBK266373], 99.7%. On to `CC(C)(CO)C(O)C(=O)NC1CCCC(C(=O)O)C1` (stereo not shown) [CBK286609], for which the viability at 28.5 h, 10 µM was determined as 96%. As for `Cc1ccc(-c2ccc(N3CCN(C)CC3)nc2)cc1C` [CBK036937], the figure is 93.7%; as for `O=C(Cn1c(-c2cncs2)nc2ccccc21)NCc1ccc2c(c1)OCO2` [CBK264699], 95.5%; as for `CC(C)C[C@@H]1N[C@H](C(=O)NCCN(C)C)Cc2c[nH]c3cccc1c23` [CBK289417], 92.9%. For `CCN1C(=O)CC2(C1=O)C(=O)N(CCCOc1ccc(Cl)cc1)c1ccc(C)cc12` (stereo not shown) [CBK075648], the viability at 28.5 h, 10 µM is 109%. Turning to `Cc1nc(NCCCn2ccnc2)c2ccccc2n1` [CBK051987], the viability at 28.5 h, 10 µM came out at 95.1%. As for `COC(=O)c1sccc1NS(=O)(=O)c1cc(F)c(Br)cc1F` [CBK004492], the figure is 103%; as for `O=C(c1ccco1)N1CCN(c2cc(-c3ccccc3Oc3ccccc3)ncn2)CC1` [CBK037817], 96.8%; as for `CCCCC(NC(=O)c1cc2ccccc2[nH]1)C(=O)O` (stereo not shown) [CBK286647], 85.9%. On to `Cc1nc2ccccn2c1CN1CCC(N2CCCC2)CC1` [CBK281730], for which the viability at 28.5 h, 10 µM was determined as 108%. As for `O=C(O)C1CCCCC1C(=O)NCCCN1CCOCC1` (stereo not shown) [CBK286903], the figure is 83.4%; as for `OC(CN1CCC(O)(c2ccc3c(c2)OCO3)CC1)c1ccc2c(c1)CCC2` (stereo not shown) [CBK286326], 99.6%; as for `O=C(Cc1ccccc1F)N1CCC(c2cc3cccnc3[nH]2)CC1` [CBK285035], 104%. In the case of `CN(CCO)c1ccc(C(=O)N2CCC(N3CCOCC3)CC2)cn1` [CBK306899] it was 97%; in that of `OCc1cccc(-c2cncc(NC3CCC(O)CC3)n2)c1` (stereo not shown) [CBK065448], 102%; in that of `Nc1ncnc2sc3c(c12)CCC3` [CBK097952], 89.7%.

On to `NS(=O)(=O)c1ccc(/N=C/c2cccc(OCc3ccccc3)c2)cc1` [CBK261594], for which the viability at 28.5 h, 10 µM was 92.1%. As for `COc1ccc(CCN2CCC(Oc3nccnc3NS(C)(=O)=O)CC2)cc1OC` [CBK084285], the figure is 103%; as for `CSc1nc(N)c2nccnc2n1` [CBK025779], 104%; as for `O=C(c1ccc(-c2ccccc2)cc1)c1no[n+]([O-])c1C(=O)c1ccc(-c2ccccc2)cc1` [CBK261754], 106%. `CC(=O)Nc1ccc(S(=O)(=O)N(C)c2ccccn2)cc1Cl` [CBK044789]: the viability at 28.5 h, 10 µM amounted to 94.5%. As for `O=C(Cn1c(-c2cccs2)cc2cccnc21)N1CCCC1` [CBK282453], the figure is 83%; as for `O=C(N/N=C/c1ccc(OC(=O)c2cccs2)cc1)c1ccccn1` [CBK262178], 107%; as for `O=C(Cn1cnc2sc(-c3ccccc3)cc2c1=O)c1ccc2c(c1)OCO2` [CBK297102], 87%. In the case of `COc1nc(NCc2ccco2)nc(OC)n1` [CBK027479] it was 86.4%; in that of `CC(C)(C)OC(=O)N1CCC(c2nc3ccc(F)cc3cc2N)CC1` [CBK284658], 88.9%. As for `C[N+](C)(C)CCC(=O)CCC(=O)O` [CBK262012I], the figure is 102%; as for `O=C(NCc1ccc(Cl)c(Cl)c1)c1cncc(-c2ccc(C(=O)N3CCOCC3)cc2)c1` [CBK158612], 98.2%. In the case of `CCn1c(CN2CCC(c3cc(O)nc(N)n3)C2)nc2c(F)cccc21` (stereo not shown) [CBK304189], the viability at 28.5 h, 10 µM is 87.5%. In the case of `Nc1nc(COn2c(-c3ccccc3)nc3ccccc3c2=O)nc(-c2ccccc2O)n1` [CBK266689] it was 98.6%; in that of `CCCc1c(C(=O)NCC(C)(C)CN(C)C)cnn1-c1cc(Cl)cc(Cl)c1` [CBK107381], 94.3%; in that of `COc1ccccc1C(=O)O/N=C1/CCCc2c1ccc(OC)c2[N+](=O)[O-]` [CBK263555], 102%. In the case of `O=C1CCC(=O)N1CCOc1nccnc1N1CCN(Cc2ccccc2)CC1` [CBK084288] it was 87.9%. For the compound `CN(CC(=O)O)S(=O)(=O)c1ccc(F)c2ccccc12` [CBK268447], the viability at 28.5 h, 10 µM is 98.5%. In the case of `CCN1CCN(Cc2c(C(F)(F)F)[nH]c3ncccc23)CC1` [CBK285362] it was 95.2%; in that of `O=C(COc1ccccc1)Nc1cnc(-c2ccc(F)cc2)c(-c2ccsc2)n1` [CBK036958], 91.7%. In the case of `CCN1CCN(C(=O)CCNC(=O)c2cccc(OC)c2)CC1` [CBK307580] it was 96.6%; in that of `O=C(O)c1cccc(S(=O)(=O)N(CCO)CCO)c1` [CBK263221], 93.2%; in that of `Cc1cc(Cl)ccc1OCCCC(=O)N1CCc2ccccc21` [CBK059016], 97.8%.
